Assays:
[1] = tested on: Hsp70i, Hsc70, Grp78, Grp75, Hsp90; experiment: Elution of HEK 293T cell lysate proteins from the ATP resin (silver stain, Western blot); format: binding; conditions: Western blot
Procedure: (§1) FLECS Screen: A pEGFP-tagged Hsp70i was (plasmid 15215, Addgene, Cambridge, Mass.) used in the FLECS assay and was originally cloned according to [Zeng et al. (2004). Hsp70 dynamics in vivo: effect of heat shock and protein aggregation. Journal of cell science 117, 4991-5000]. ATP used in the assay was purchased from Sigma (St. Louis, Mo.) and a 200 mM stock was prepared with low salt buffer (150 mM NaCl, 25 mM Tris, pH 7.5, 60 mM MgCl2). The γ-phosphate ATP sepharose was synthesized as previously described and stored in low salt buffer [Haystead et al. (1993). Gamma-phosphate-linked ATP-sepharose for the affinity purification of protein kinases. Rapid purification to homogeneity of skeletal muscle mitogen-activated protein kinase kinase. European journal of biochemistry/FEBS 214, 459-467]. FuGENE 6 transfection reagent (Roche, Mannheim, Germany) was used for transfection of GFP-Hsp70i into HEK 293T cells, following the manufacturer protocol. The transfection ensued for 48 hours, upon which time the cells were harvested and lysed in cell lysis buffer (150 mM NaCl, 50 mM Tris, pH 7.5, 1% Triton X-100, 1 mM EDTA, 1 mM DTT, and 1 tablet Complete Mini protease inhibitor (Roche)). Cell lysates were stored at −80° C. until further use. Upon binding the resin lysates were washed 3× with high stringency wash buffer (1 M NaCl, 25 mM Tris, pH 7.5, 60 mM MgCl2, 1 mM DTT) and 3× with low stringency wash buffer (150 mM NaCl, 25 mM Tris, pH 7.5, 60 mM MgCl2, 1 mM DTT). Next the lysates were transferred to 0.2 μm PVDF filter 96-well plate (Corning, Corning, N.Y.) sitting on top of a black flat-bottomed 96-well catch plate (Corning). […]
(§2) HS-72 specifically targets Hsp70i over other members of the Hsp70 superfamily. […] To more thoroughly determine the specificity of HS-72 for Hsp70i, the HEK 293T eluates were also analyzed for other Hsp70 family members Hsc70, Grp78, and Grp75, as well as Hsp90 by Western blot. […] The linker on the resin was cleaved using sodium dithionite and the samples were subjected to SDS-PAGE and analyzed by Western blot, silver stain, and mass spectrometry. […]

[2] = molecular target: T1, Hsp70i, Hsc70, Grp78, Grp75, Hsp90 (Homo sapiens, UniProt P0DMV8); experiment: as above; format: binding; conditions: few non-specific eluted proteins
T1 construct: endogenous in cells; host or cells: HEK 293T
Procedure: as §1, §2

GFP-Hsp70i = molecular target: T2, GFP-Hsp70i (Homo sapiens, UniProt P0DMV8); experiment: FLECS elution of GFP-Hsp70i from γ-phosphate-linked ATP resin; format: binding; conditions: compared with HS-71
T2 construct: host or cells: HEK 293T
Procedure: as §1, with “DTT).” for “DTT). Next the lysates were transferred to 0.2 μm PVDF filter 96-well plate (Corning, Corning, N.Y.) sitting on top of a black flat-bottomed 96-well catch plate (Corning).”
Assembly of a focused library, consisting of 3379 purine like compounds, was described previously [Carlson et al. (2013). Fluorescence Linked Enzyme Chemoproteomic Strategy for Discovery of a Potent and Selective DAPK1 and ZIPK Inhibitor. […] The lysates were eluted from the filter plate onto a catch plate by centrifugation and the fluorescence of the eluates was measured. […] Next, the presence of GFP-Hsp70i in the eluates from the 197 primary hits was determined by Western blot. […]

[3] = Blood workup after HS-72 treatment; format: in vivo; conditions: wild-type mice, compared to control mice
Procedure: HS-72 in vivo MTD and blood workup: The 5 cohorts consisted of 3 mice each given HS-72 BiW and administered IP in DMSO at 1, 5, 10, 20 and 30 mpk using female FVBs aged to 10 weeks. Body Mass was measured weekly and the mice were monitored for signs of toxicity as per MP1U standard protocol. For blood analysis, 4 mice were injected IP with HS-72 on day 1 and 4, with blood drawn on day 5. 4 mice receiving no treatment were used as controls.

T2 sequence (P0DMV8 whole entry): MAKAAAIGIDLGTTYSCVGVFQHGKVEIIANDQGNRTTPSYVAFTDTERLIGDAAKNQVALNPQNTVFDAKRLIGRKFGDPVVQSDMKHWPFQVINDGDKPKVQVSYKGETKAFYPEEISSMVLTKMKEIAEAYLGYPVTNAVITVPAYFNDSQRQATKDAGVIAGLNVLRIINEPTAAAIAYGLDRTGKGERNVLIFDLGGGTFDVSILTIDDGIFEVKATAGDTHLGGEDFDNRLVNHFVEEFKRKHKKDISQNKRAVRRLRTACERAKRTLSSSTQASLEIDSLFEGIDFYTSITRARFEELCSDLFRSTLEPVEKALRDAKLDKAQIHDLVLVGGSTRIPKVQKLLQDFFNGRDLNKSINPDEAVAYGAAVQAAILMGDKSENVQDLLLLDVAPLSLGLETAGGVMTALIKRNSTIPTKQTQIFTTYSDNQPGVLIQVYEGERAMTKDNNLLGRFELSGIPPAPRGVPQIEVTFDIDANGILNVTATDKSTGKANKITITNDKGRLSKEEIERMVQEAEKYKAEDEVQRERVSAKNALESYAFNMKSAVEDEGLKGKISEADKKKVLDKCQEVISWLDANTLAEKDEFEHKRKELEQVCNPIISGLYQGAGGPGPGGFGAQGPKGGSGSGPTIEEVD
T1 sequence (P0DMV8 2-641): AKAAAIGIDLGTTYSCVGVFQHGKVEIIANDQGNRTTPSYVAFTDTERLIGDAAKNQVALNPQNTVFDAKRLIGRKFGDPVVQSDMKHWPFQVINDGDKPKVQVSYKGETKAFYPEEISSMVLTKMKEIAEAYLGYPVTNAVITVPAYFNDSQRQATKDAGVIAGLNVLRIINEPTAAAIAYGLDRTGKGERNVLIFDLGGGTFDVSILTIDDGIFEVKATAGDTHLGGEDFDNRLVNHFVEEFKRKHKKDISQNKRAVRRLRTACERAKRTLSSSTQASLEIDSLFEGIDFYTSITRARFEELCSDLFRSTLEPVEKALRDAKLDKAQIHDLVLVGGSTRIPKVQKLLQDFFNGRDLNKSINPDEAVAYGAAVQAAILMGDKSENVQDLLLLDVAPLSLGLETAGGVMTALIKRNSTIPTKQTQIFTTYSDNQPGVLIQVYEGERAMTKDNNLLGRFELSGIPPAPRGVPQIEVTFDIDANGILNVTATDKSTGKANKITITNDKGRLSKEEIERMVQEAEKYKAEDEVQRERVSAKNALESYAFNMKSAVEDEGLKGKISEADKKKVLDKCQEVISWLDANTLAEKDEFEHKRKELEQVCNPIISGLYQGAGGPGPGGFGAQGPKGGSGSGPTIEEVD

CCCn1c(NC(=O)[C@H]2CCCN(c3cnccn3)C2)nc2ccccc21 [HS-72, (S)—N-(1-propyl-1H-benzo[d]imidazol-2-yl)-1-(pyrazin-2-yl)piperidine-3-carboxamide]
Hsp70 family members and Hsp90 eluted from the ATP resin [1]: only inducible Hsp70 was eluted | elution of Hsp70 from ATP resin [2]: elutes Hsp70 | elution of GFP-Hsp70 from the ATP resin, S vs. R enantiomer (GFP-Hsp70i): more effective | complete blood count [3]: no effect on complete blood count | kidney function [3]: no effect on kidney function | liver function [3]: no effect on liver function

Reference: patent US10000469B2, “Heat shock protein 70 (hsp-70) receptor ligands” (Duke University, priority 2014, dated 2018)
